Test results from patent US12637467B2, “Inhibitor of BTK and mutants thereof” (Newave Pharmaceutical Inc., priority 2019, dated 2026).
“Also recorded” adds a separate entry of the source.

Legend:
WT BTK [1] = biological target: T1, WT BTK (Homo sapiens, UniProt Q06187); assay: In vitro dialysis assay (irreversibility assay), WT BTK; type: biochemical; conditions: for Conclusion (WT BTK): reversible or irreversible inhibition after 24 hr dialysis; for Recovery after 24 h dialysis: 0.003 mM compound pre-incubated with 2 nM BTK for 2 hr, dialyzed 24 hr against buffer with 40 mM ATP, BTK activity vs non-dialyzed samples
T1 sequence (Q06187 whole entry): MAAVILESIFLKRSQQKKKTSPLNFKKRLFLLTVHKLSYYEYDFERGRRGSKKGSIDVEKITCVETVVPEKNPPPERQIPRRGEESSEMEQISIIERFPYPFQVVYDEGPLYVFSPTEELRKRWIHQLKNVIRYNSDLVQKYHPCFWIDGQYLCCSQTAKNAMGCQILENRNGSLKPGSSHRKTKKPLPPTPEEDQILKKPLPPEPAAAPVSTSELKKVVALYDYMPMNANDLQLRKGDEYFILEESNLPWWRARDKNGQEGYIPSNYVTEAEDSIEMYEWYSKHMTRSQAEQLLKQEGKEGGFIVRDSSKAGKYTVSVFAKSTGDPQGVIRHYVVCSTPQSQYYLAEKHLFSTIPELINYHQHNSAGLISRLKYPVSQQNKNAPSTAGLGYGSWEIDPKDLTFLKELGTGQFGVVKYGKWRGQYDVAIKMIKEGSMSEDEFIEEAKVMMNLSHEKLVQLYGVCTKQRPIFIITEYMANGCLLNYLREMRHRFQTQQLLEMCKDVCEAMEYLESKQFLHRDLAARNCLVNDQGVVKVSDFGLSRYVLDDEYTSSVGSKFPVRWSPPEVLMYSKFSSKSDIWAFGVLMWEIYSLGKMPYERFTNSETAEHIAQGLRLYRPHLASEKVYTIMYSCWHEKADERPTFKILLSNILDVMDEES
Description: (§1) The compound-enzyme complex was dialyzed against the same buffer supplemented with 40 mM ATP for 24 hr. Cumulative dialysis factor >160,000×. After dialysis, the BTK activity was measured in the presence 40 mM ATP and 1 mM substrate peptide and compared to that in non-dialyzed samples. Assay buffer: 100 mM HEPES, pH7.5; 0.1% BSA, 0.01% Triton-X 100; 5 mM MgCl2; 1 mM DTT.

C481S BTK [2] = biological target: T2, C481S BTK (Homo sapiens, UniProt Q06187, C481S); assay: Reversibility of binding to C481S BTK enzyme; type: biochemical; conditions: cysteine not available for covalent binding
T2 sequence (Q06187 whole entry C481S): as the sequence (Q06187 whole entry) above, with C481S counted along it
Description: as §1

REC-1 xenograft = REC-1 xenograft model; type: in vivo, mice; conditions: for Tumor volume: BIDX28
Excerpt: Typically, athymic nude mice (CD-1 nu/nu) or SCID mice are obtained at age 6-8 weeks from vendors and acclimated for a minimum 7-day period. The cancer cells are then implanted into the nude mice. Depending on the specific tumor type, tumors are typically detectable about two weeks following implantation. When tumor sizes reach ˜100-200 mm^3, the animals with appreciable tumor size and shape are randomly assigned into groups of 8 mice each, including one vehicle control group and treatment groups. Dosing varies depending on the purpose and length of each study, which typically proceeds for about 3-4 weeks. Tumor sizes and body weight are typically measured three times per week. In addition to the determination of tumor size changes, the last tumor measurement is used to generate the tumor size change ratio (T/C value), a standard metric developed by the National Cancer Institute for xenograft tumor evaluation. In most cases, % T/C values are calculated using the following formula: % T/C=100×ΔT/ΔC if ΔT>0. When tumor regression occurred (ΔT<0), however, the following formula is used: % T/T0=100×ΔT/T0. Values of <42% are considered significant.

WT BTK [3] = biological target: T1, WT BTK; assay: Caliper-based kinase assay, WT BTK; type: biochemical; conditions: 0.5 nM enzyme, 16 μM ATP, 3 h at room temperature; read-out: WT BTK IC50 (nM) (irreversible inhibition)
Description: (§2) The reaction was then terminated with EDTA, final concentration 20 mM and the phosphorylated reaction product was quantified on a Caliper Desktop Profiler (Caliper LabChip 3000).

C481S BTK [4] = biological target: T2, C481S BTK; assay: Caliper-based kinase assay, C481S BTK; type: biochemical; conditions: 0.5 nM enzyme, 16 μM ATP, 3 h at room temperature; read-out: C481S BTK IC50 (nM) (reversible inhibition)
Description: as §2

[5] = rats, treatment for longer than 7 days; cited from earlier work
[6] = formulations containing GDC-0853, Phase I clinical trials; cited from earlier work
[7] = 10 mg/kg po, day 26 of the study
[8] = 50 mg/kg po, day 28 of the study

| Conclusion (WT BTK) (WT BTK [1]) | Recovery after 24 h dialysis (WT BTK [1]) | IC50 (WT BTK [3]) | Compound | also measured |
| --- | --- | --- | --- | --- |
| Irreversible/covalent inhibition | ~1% |  | C=CC(=O)Nc1cc(Nc2nc(-c3ccnc(N4CCn5c(cc6c5CC(C)(C)C6)C4=O)c3CO)cn(C)c2=O)ccc1N1CCN(C2CCOCC2)C[C@@H]1C [Example 22, N-(5-[[6-(2-[4,4-dimethyl-9-oxo-1,10-diazatricyclo[6.4.0.0^[2,6]]dodeca-2(6),7-dien-10-yl]-3-(hydroxymethyl)pyridin-4-yl)-4-methyl-3-oxopyrazin-2-yl]amino]-2-[(2S)-2-methyl-4-(oxan-4-yl)piperazin-1-yl]phenyl)prop-2-enamide] | Tumor volume (REC-1 xenograft; [7]): 450 mm^3; Tumor volume (REC-1 xenograft; 12.5 mg/kg po, day 28 of the study): 201 mm^3; Tumor volume (REC-1 xenograft; 25 mg/kg po, day 28 of the study): 58 mm^3; Tumor volume (REC-1 xenograft; [8]): 56 mm^3; efficacy compared with Acalabrutinib (REC-1 xenograft; REC-1 xenograft, 10 mg/kg, day 26 of the study): better efficacy than Acalabrutinib; reduction of tumor growth (REC-1 xenograft; REC-1 xenograft, 12.5-50 mg/kg, day 28 of the study): dose-dependent reduction of tumor growth |
|  |  | > 100 nM | C=CC(=O)Nc1cc(Nc2nc(-c3ccnc(N4CCc5cccnc5C4=O)c3CO)cn(C)c2=O)ccc1N1CCN(C2COC2)C[C@@H]1C [Example 33, N-[5-([6-[3-(hydroxymethyl)-2-(8-oxo-5,6-dihydro-1,7-naphthyridin-7-yl)pyridin-4-yl]-4-methyl-3-oxopyrazin-2-yl]amino)-2-[(2S)-2-methyl-4-(oxetan-3-yl)piperazin-1-yl]phenyl]prop-2-enamide] |  |
|  |  | > 100 nM | C=CC(=O)Nc1cc(Nc2nc(-c3ccnc(N4CCc5ccncc5C4=O)c3CO)cn(C)c2=O)ccc1N1CCN(C2COC2)C[C@@H]1C [Example 32, N-[5-([6-[3-(hydroxymethyl)-2-(1-oxo-3,4-dihydro-2,7-naphthyridin-2-yl)pyridin-4-yl]-4-methyl-3-oxopyrazin-2-yl]amino)-2-[(2S)-2-methyl-4-(oxetan-3-yl)piperazin-1-yl]phenyl]prop-2-enamide] |  |
| Irreversible/covalent inhibition | ~1% | 0.073 nM | C=CC(=O)Nc1cc(Nc2nc(-c3ccnc(N4CCc5c(sc6c5CC(C)(C)C6)C4=O)c3CO)cn(C)c2=O)ccc1N1CCN(C2COC2)C[C@@H]1C [Example 34, N-(5-[[6-(2-[4,4-dimethyl-9-oxo-7-thia-10-azatricyclo[6.4.0.0^[2,6]]dodeca-1(8),2(6)-dien-10-yl]-3-(hydroxymethyl)pyridin-4-yl)-4-methyl-3-oxopyrazin-2-yl]amino]-2-[(2S)-2-methyl-4-(oxetan-3-yl)piperazin-1-yl]phenyl)prop-2-enamide] | IC50 (C481S BTK [4]): 0.46 nM |
|  |  | > 100 nM | C=CC(=O)Nc1cc(Nc2nc(-c3ccnc(N4CCc5ncccc5C4=O)c3CO)cn(C)c2=O)ccc1N1CCN(C2COC2)C[C@@H]1C [Example 31, N-[5-([6-[3-(hydroxymethyl)-2-(5-oxo-7,8-dihydro-1,6-naphthyridin-6-yl)pyridin-4-yl]-4-methyl-3-oxopyrazin-2-yl]amino)-2-[(2S)-2-methyl-4-(oxetan-3-yl)piperazin-1-yl]phenyl]prop-2-enamide] |  |
| Irreversible/covalent inhibition | ~1% |  | C=CC(=O)Nc1cc(Nc2nc(-c3ccnc(N4CCc5c(sc6c5CCC6(C)C)C4=O)c3CO)cn(C)c2=O)ccc1N1CCN(C2COC2)C[C@@H]1C [Example 35, N-(5-[[6-(2-[5,5-dimethyl-9-oxo-7-thia-10-azatricyclo[6.4.0.0^[2,6]]dodeca-1(8),2(6)-dien-10-yl]-3-(hydroxymethyl)pyridin-4-yl)-4-methyl-3-oxopyrazin-2-yl]amino]-2-[(2S)-2-methyl-4-(oxetan-3-yl)piperazin-1-yl]phenyl)prop-2-enamide] |  |
| Irreversible/covalent inhibition | ~1% |  | C=CC(=O)Nc1cc(Nc2nc(-c3ccnc(N4CCCn5c(cc6c5CC(C)(C)C6)C4=O)c3CO)cn(C)c2=O)ccc1N1CCN(C2COC2)C[C@@H]1C [Example 29, N-(5-[[6-(2-[4,4-dimethyl-9-oxo-1,10-diazatricyclo[6.5.0.0^[2,6]]trideca-2(6),7-dien-10-yl]-3-(hydroxymethyl)pyridin-4-yl)-4-methyl-3-oxopyrazin-2-yl]amino]-2-[(2S)-2-methyl-4-(oxetan-3-yl)piperazin-1-yl]phenyl)prop-2-enamide] |  |

Continued, molecule first:

| Compound | Conclusion (WT BTK) (WT BTK [1]) | Recovery after 24 h dialysis (WT BTK [1]) | IC50 (WT BTK [3]) | also measured |
| --- | --- | --- | --- | --- |
| C=CC(=O)Nc1cc(Nc2nc(-c3ccnc(N4CCn5c(cc6c5CC(C)(C)C6)C4=O)c3CO)cn(C)c2=O)ccc1N1CCN(C)CC1 [Example 2, N-(5-((6-(2-(7,7-dimethyl-1-oxo-1,3,4,6,7,8-hexahydro-2H-cyclopenta[4,5]pyrrolo[1,2-a]pyrazin-2-yl)-3-(hydroxymethyl)pyridin-4-yl)-4-methyl-3-oxo-3,4-dihydropyrazin-2-yl)amino)-2-(4-methylpiperazin-1-yl)phenyl)acrylamide] | irreversible inhibitors; also recorded: Irreversible/covalent inhibition |  |  | Mode of binding to C481S BTK (C481S BTK [2]): reversibly bind |
| C=CC(=O)Nc1cc(Nc2nc(-c3ccnc(N4CCn5c(cc6c5CC(C)(C)C6)C4=O)c3C(F)(F)F)cn(C)c2=O)ccc1N1CCN(C2COC2)C[C@@H]1C [Example 28, (S)—N-(5-((6-(2-(7,7-dimethyl-1-oxo-1,3,4,6,7,8-hexahydro-2H-cyclopenta[4,5]pyrrolo[1,2-a]pyrazin-2-yl)-3-(trifluoromethyl)pyridin-4-yl)-4-methyl-3-oxo-3,4-dihydropyrazin-2-yl)amino)-2-(2-methyl-4-(oxetan-3-yl)piperazin-1-yl)phenyl)acrylamide] |  |  | > 100 nM | IC50 (C481S BTK [4]): > 1000 nM |
| CC#CC(=O)N1CCC[C@H]1c1nc(-c2ccc(C(=O)Nc3ccccn3)cc2)c2c(N)nccn12 [ACP-196, Acalabrutinib, reference compound] |  |  |  | Tumor volume (REC-1 xenograft; [7]): 672 mm^3; Tumor volume (REC-1 xenograft; [8]): 108 mm^3 |
| C[C@H]1CN(C2COC2)CCN1c1ccc(Nc2cc(-c3ccnc(N4CCn5c(cc6c5CC(C)(C)C6)C4=O)c3CO)cn(C)c2=O)nc1 [GDC-0853, reference compound] | reversible WT BTK inhibitor |  |  | pancreatic toxicity [5]: leads to pancreatic toxicity; tolerability [6]: well-tolerated |
| C=CC(=O)Nc1cc(Nc2nc(-c3ccnc(N4CCn5c(cc6c5CC(C)(C)C6)C4=O)c3CO)cn(C)c2=O)ccc1N1CCN(C2COC2)C[C@@H]1C [Example 3, (S)—N-(5-((6-(2-(7,7-dimethyl-1-oxo-1,3,4,6,7,8-hexahydro-2H-cyclopenta[4,5]pyrrolo[1,2-a]pyrazin-2-yl)-3-(hydroxymethyl)pyridin-4-yl)-4-methyl-3-oxo-3,4-dihydropyrazin-2-yl)amino)-2-(2-methyl-4-(oxetan-3-yl)piperazin-1-yl)phenyl)acrylamide] | irreversible inhibitors; also recorded: Irreversible/covalent inhibition |  |  |  |
